For one assay, the system named is Rac1V12 transgenic mice. As to the kind of experiment: Rac1V12 transgenic mouse model of psoriasis. The assay is classed as in vivo. The method, then:
Transgenic mice and mice for xenografting Rac1V12-transgenic mice were generated as previously described. For xenografting, NOD/SCID mice were used (NOD.CB17-PrkdcSCID/J mice; stock 001303; The Jackson Laboratory).
Topical formulation and administration. A rudimentary preparation of benzamil was tested using benzamil (6 mg/ml, benzamil, Sigma) in 100% ethanol. This solution was then topically applied through submerged and air-drying tails of mice under anesthesia, once daily for 15 days. Similarly, benzamil was suspended in water (2 mg/ml), then mixed into Vaseline, vortexed and centrifuged until a clear solution was obtained. A final formulation of benzamil is described in supplementary material and methods. For intraperitoneal injections, benzamil was dissolved at 2 mg/ml in water, and 0.7, 1.4 or 2.1 mg/kg was injected IP daily. For osmotic pump injections, Alzet osmotic pumps were used, (Alzet minipump 1002). Pumps were filled with 100 ul of benzamil in ethanol under sterile conditions, at a final dose of 2 mg/kg/day, and subcutaneous, inter-scapular implantations were performed under anesthesia. Pumps were replaced once for a total of 2×14 days treatment period.
Topical formulation of benzamil. A labrasol (88%) based formulation of benzamil was generated containing benzamil (1%, w/w), span-20 (1%) and cetyltrimethylammonium bromide (CTAB) (10%). Constituents were dissolved in ethyl alcohol, mixed well using vortex and sonication at 37° C. until a clear solution was obtained. Ethyl alcohol was evaporated in a Speedvac. The residue was suspended in Labrasol and homogenized to obtain the final formulation.
For a final formulation of benzamil (for use on human reconstructed skin), 52 ml water, 5.2 ml glycerin, 9.7 ml rice bran oil, 4 ml caprylic aid triglyceride, 6.2 g cetearyl alcohol, 8.6 g 50/50 mixture of cetearyl glucoside and cetearyl alcohol and 3.5 g cocoa butter was heated to 75° C. until dissolved, removed from heat, mixed using Cimarec 2 magnetic stir. At 45° C. […]

The subject of assay [1] is primary psoriasis keratinocytes (PSOKC). Description: MTT proliferation assay, primary psoriasis keratinocytes. As to conditions: for proliferation in PSOKCs: 10 μM. The assay is classed as cell-based, human. The protocol: MTT assays. 10000 third-passage adult keratinocytes per well, or 25000 for IC50 curves, were seeded on a collagen-coated 96 well plate, and incubated with 50/50 (Medium 154 and Keratinocyte—SFM medium, Invitrogen with Human Keratinocytes Growth Supplement, S-001-5, Invitrogen, and Medium 154 supplement M-154-6 500, Invitrogen) with 1% antibiotic-antimycotic (30-004-CI, Mediatech Inc) for 48 h. 10 ul MTT reagent (MTT proliferation assay, ATCC, Manassas, US) was added for 4 h, 100 ul detergent was added to each well for 4 hours, and absorbance read at 570 nm (Spectramax M5, Molecular Devices, US), normalized to cell-free control absorbance.
Small molecule inhibition. All small molecules were diluted into concentrated stock solutions (all except YM-244769 were made into 50 mM stock solutions) in DMSO, and stored in aliquots at −20 C. Aliquots were thawed, then diluted to a 1000× stock concentration, then added to media so that final DMSO concentration is 0.1%. All in vitro studies entailing small molecule inhibition were accessed over 24 hour incubation period.
Statistical analysis. Microrarray data was analyzed using the affy package from Bioconductor on R statistical software package. Other statistical analysis was performed using Graphpad Prism 7.03, and statistical tests (unpaired t-tests with Welch correction, paired t-test, Mann-Whitney unpaired test, and linear regression analysis with goodness of fit) and sample sizes are outlined in each figure legend. Components of signature for goodness of fit by linear regression analysis were extrapolated from the benzamil rank aggregation algorithm All error bars denotes standard error of the mean. For IC50 calculations, MTT data absorbance values were calculated for percent change from the 0.1% DMSO vehicle condition. A non-linear fitted curve [log (inhibitor) vs response (three parameters)] in GraphPad Prism 7 was used to determine IC50 values. For mouse and xenograft experiments, ad hoc power calculations were based on prior phenotypic characterization of these models. Transgenic mice were randomized from same litters when possible, or based on similar phenotypic disease severity, and all experiments were run in triplicates or more. Sample size of xenografts mice studies were based on patient sample availability and a predicted graft take rate of 80%. For all comparisons, p values of less than 0.05 were considered statistically significant. All tests were two-tailed unless specified in figure legends.
(§1) Small molecule inhibitors. 10 uM benzamil hydrochloride hydrate (Sigma B2417), 10 uM amiloride hydrochloride (Tocris 890) 10 uM zoniporide dihydrochloride (Tocis 2727), 10 nM YM-244769 (Tocris 4544), 10 uM SEA 0400 2-[4-[(2,5-944 difluorophenyl)methoxy]phenoxy]-5-ethoxyaniline) (Tocris 6164), 10 uM triamterene (Sigma-Aldrich T4143).

Assay [2] deals with Human Primary keratinocytes. Description: Cytokine response of TNF-α/IL-17 stimulated keratinocytes (Luminex). The format is cell-based. The settings on record: TNF-α 10 ng/ml and IL-17 10 ng/ml, 48 hours. The protocol:
Human Primary keratinocytes were purchased from Thermo Fisher. Keratinocytes were cultured in medium 154 supplemented with HKGS, split using TrypLE and neutralized using DMEM supplemented with 10% FBS. Cells were split to keep 20-80% confluency and not passaged above passage 5. Keratinocytes were detached using TrypLE Express, Trypsin Neutralizer solution was added and the detached cells transferred to a sterile conical tube. Cells were resuspended in 15 ml medium with HKGS supplemented (cat no S-001-K) but without hydrocortisone. The cells were pipetted up and down with a 10 ml pipette to ensure a homogeneous cell suspension.
Human primary keratinocytes detached as described above, were resuspended in PBS at 1×10^6 cells/ml and filtered through a 35 μm cell strainer. Cells were stained with CellTrace Violet at 5 μM for 20 minutes at 37° C., 5% CO2. After staining, DMEM supplemented with 10% FBS was added to stop staining and cells was incubated at 37° C., 5% CO2 for 5 minutes. After incubation, cells were washed with PBS 1× and resuspended in Medium 154 supplemented with HGKS without hydrocortisone at 6×10^5 cells/ml and 200 μl was added to wells in a 96-well flat bottom cell culture plate. Cells were incubated overnight at 37° C., 5% CO2/95% air. […]
Supernatants were analyzed for cytokines IL-6, IL-8, and CXCL1 using Luminex. […] Samples were analyzed on a Bio-Rad Luminex 200 analyzer. […]

Assay [3] concerns V12KC (primary keratinocytes transduced with V12 Rac1). Description: Proliferation of V12 Rac1 transduced primary keratinocytes vs LacZ control. The format is cell-based. As to conditions: Homo sapiens, Keratinocyte.
Another assay has as its system PSOKCs. Description: Intracellular pH assay (pHrodo red). The assay is classed as cell-based, human. As to conditions: PSOKCs / primary keratinocytes overexpressing Rac1, 24 h, 10 uM; listed as Zoniporide. The protocol:
Intracellular pH assays 25,000 were seeded per well of 96-well plate and allowed cells to settle and recover for 24 hrs. Small molecules or 0.1% DMSO vehicle control was added to culture media for 24 hours (n=6-8). Cells were washed once with 1× Live Cell Imaging Solution (LCIS) (ThermoFisher A14291DJ), and then incubated with pHrodo red (ThermoFisher P35372), PowerLoad (ThermoFisher P35372), in LCIS with added 1:5000 Hoechst (Life Technologies) for 30 min at 37 C 5% CO2 with corresponding small molecule added at same concentration used for 24 hour incubation.
as §1
Intracellular pH assays and standard curves. Cells were also washed 3 times with 1×LCIS with the last wash of 100 uL kept on cells. For generation of pH standard curve, additional wells (n=6-8) were treated as described with an addition of 0.1% DMSO vehicle for 24 hours. […] The 96-well plate was then read on a fluorescence microplate reader (Spectramax M5, Molecular Devices) with excitation/emission of […] and 361/497. […]

“Also recorded” adds a separate entry of the source. Like-named read-outs stand apart in the source and are kept apart here.

In the case of Bromocriptine, in the assay on Rac1V12 transgenic mice (intraperitoneal 10 mg/kg every other day, 20 treatments, vs baseline), the “signs of improvement (scaling, ulceration, erythema, epidermal thickening)” value was “improved after treatment”.

For `N=C(N)NC(=O)c1nc(Cl)c(N)nc1N` [amiloride], the psoriasiform hyperplasia result with Rac1V12 transgenic mice (systemic) is reported as “failed to demonstrate any effect”. Further, the “proliferation in PSOKCs” value in assay [1] is “not achieved by amiloride or triamterene; also recorded: not amiloride or triamterene reduced proliferation”.

`C=C(CC)C(=O)c1ccc(OCC(=O)O)c(Cl)c1Cl` [Ethacrynic acid]: in assay [2], the “concentration with decrease of IL-8” value was determined as 10 µM. In the case of `Nc1nc(N)c2nc(-c3ccccc3)c(N)nc2n1` [triamterene], in assay [1], the “proliferation in PSOKCs” value is “not achieved by amiloride or triamterene; also recorded: not amiloride or triamterene reduced proliferation”.

On to `Cc1cc(I)ccc1Nc1c(C(=O)NOCC2CC2)cc(F)c(F)c1F` [PD198306], for which the “concentration with decrease of CXCL1” value in assay [2] turned out to be 100 nM. On to `NC(=NCc1ccccc1)NC(=O)c1nc(Cl)c(N)nc1N` [benzamil], for which the IC50 in assay [3] was 990 nM; in assay [1] (cells from 5 psoriasis donors, read-out: IC50 on proliferation), around 1000 nM; in assay [1] (range across donors, read-out: IC50 range in five psoriasis donor primary keratinocyte cultures) it was 0.1 to 4600 nM. Take `N=C(N)NC(=O)c1cnn(-c2cccc3ncccc23)c1C1CC1` [zoniporide]: the “proliferation in PSOKCs” value in assay [1] is recorded as “recapitulated benzamil's significant capacity to reduce proliferation”; in assay [1] (listed as Zoniporide), “reduced proliferation in PSOKCs to levels observed by Benzamil”. The “intracellular pH” value in the assay with PSOKCs is “significantly reduced intracellular pH”.

`C[C@H]1C[C@H]2[C@@H]3CCC4=CC(=O)C=C[C@]4(C)[C@@]3(F)[C@@H](O)C[C@]2(C)[C@@]1(O)C(=O)CCl` [clobetasol]: the epidermal thickness entry in the assay with Rac1V12 transgenic mice (topical, compared to vehicle) is recorded as “reduction in epidermal thickness”.

Values taken from patent US20240226126A1, “COMPOSITIONS FOR TREATMENT OF PSORIASIS” (The Board of Trustees of the Leland Stanford Junior …, priority 2021, published 2024).
